Assay results reported in publication PMC11318591 (ACS Medicinal Chemistry Letters, 2024).
Values after ≈ are worked out from the molar mass of the structure shown. Where two headings read alike, the source gives them in different places.

Experiments:
[1] = test system: S. enterica Typhimurium 14028 ΔtolC1::kan; test: Minimal inhibitory concentration; format: cell-based, Salmonella enterica serovar Typhimurium; details: for MIC: Salmonella enterica, TYPHIMURIUM, read-out: S. enterica Typhimurium 14028 ΔtolC1::kan MIC
S. aureus DNA gyrase = S. aureus DNA gyrase (Staphylococcus aureus, UniProt P20831); test: DNA cleavage assay
[2] = MIC wildtype 14028 vs efflux-deficient ΔtolC1::kan

Sequence of S. aureus DNA gyrase (P20831 whole entry): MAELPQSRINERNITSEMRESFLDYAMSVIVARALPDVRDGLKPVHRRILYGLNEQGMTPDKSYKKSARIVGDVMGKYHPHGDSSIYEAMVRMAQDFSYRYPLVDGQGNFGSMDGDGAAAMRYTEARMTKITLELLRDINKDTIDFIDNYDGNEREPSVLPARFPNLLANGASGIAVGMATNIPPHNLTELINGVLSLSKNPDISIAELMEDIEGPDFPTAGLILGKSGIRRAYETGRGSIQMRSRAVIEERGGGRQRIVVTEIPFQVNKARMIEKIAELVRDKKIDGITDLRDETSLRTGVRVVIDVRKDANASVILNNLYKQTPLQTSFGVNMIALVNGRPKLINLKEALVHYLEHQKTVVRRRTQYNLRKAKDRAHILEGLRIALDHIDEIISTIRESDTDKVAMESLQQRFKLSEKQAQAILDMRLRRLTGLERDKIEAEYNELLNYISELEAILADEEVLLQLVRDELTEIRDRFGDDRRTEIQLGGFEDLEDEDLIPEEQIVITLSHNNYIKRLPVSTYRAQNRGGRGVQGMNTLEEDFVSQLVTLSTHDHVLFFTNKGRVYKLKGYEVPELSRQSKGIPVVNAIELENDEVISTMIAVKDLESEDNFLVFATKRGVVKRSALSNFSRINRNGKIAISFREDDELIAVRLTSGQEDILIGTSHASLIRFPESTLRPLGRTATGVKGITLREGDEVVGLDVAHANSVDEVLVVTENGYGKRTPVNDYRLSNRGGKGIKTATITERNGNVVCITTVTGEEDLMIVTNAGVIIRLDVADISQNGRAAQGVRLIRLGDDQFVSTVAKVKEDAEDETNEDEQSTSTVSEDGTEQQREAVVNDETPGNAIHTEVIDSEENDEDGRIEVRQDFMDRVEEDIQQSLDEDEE
Sequence of S. aureus DNA gyrase (P0A0K8 whole entry partner): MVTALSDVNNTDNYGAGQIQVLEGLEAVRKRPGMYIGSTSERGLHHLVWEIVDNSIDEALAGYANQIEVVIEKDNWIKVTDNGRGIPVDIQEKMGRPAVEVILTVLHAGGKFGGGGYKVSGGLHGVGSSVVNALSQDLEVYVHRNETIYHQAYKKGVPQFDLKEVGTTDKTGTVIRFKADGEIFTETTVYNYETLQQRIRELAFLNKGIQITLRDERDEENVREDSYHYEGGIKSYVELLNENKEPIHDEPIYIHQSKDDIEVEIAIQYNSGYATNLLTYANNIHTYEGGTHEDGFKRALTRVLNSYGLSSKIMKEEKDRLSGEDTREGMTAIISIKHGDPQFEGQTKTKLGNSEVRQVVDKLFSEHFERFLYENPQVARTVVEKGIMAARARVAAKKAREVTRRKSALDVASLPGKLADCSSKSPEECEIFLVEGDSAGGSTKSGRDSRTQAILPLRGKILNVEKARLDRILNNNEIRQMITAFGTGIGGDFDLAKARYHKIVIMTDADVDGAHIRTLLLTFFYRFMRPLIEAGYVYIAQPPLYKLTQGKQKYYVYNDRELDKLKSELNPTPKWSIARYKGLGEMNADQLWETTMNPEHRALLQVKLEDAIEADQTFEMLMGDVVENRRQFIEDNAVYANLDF

**Q.** With `COc1ccc2ncc(F)c(CCN3CCC([C@@H](O)[C@H](O)c4ccc(C)cc4)CC3)c2n1` [16a] as the compound, how does the MIC [1] read?
**A.** 0.5 to 1 µg/mL (≈ 1.14 to 2.28 µM)

**Q.** With `COc1ccc2ncc(F)c(CCN3CCC(NCc4ccc(C)cc4)CC3)c2n1` [compound 40] as the compound, how does the “levels of SSBs” value (S. aureus DNA gyrase) read?
**A.** lower levels of SSBs

**Q.** For `COc1ccc2ncc(F)c(CCN3CCC(/C=C\c4ccc5c(c4)OCCO5)CC3)c2n1` [21b], which “Fold Change” value [1, 2] is on record?
**A.** ≥16

**Q.** Which “levels of SSBs” value (S. aureus DNA gyrase) does the source give for `COc1ccc2ncc(F)c(CCN3CCC(C(N)Cc4ccc(C)cc4)CC3)c2n1` (stereo not drawn) [9a] here?
**A.** lower levels of SSBs

**Q.** Which results are given for `O=c1ccc2ncc(=O)n3c2n1C[C@H]3CN1CCC(NCc2cc3c(cn2)OCCC3)CC1` [Gep., gepotidacin, reference compound]?
**A.** Fold Change [1, 2]: 4–16; MIC [1]: 0.125 to 0.5 µg/mL (≈ 0.279 to 1.11 µM)

**Q.** How did the “Fold Change” value [1] turn out when `COc1ccc2ncc(F)c(CCN3CCC(/C=C\c4ccc(C)cc4)CC3)c2n1` [21a] was run?
**A.** ≥8

**Q.** `COc1ccc2ncc(F)c(CCN3CCC(/C=C/c4ccc(C)cc4)CC3)c2n1` [13a] was tested. Which MIC [1] did it give?
**A.** 0.5 to 1 µg/mL (≈ 1.23 to 2.47 µM)

**Q.** With `COc1ccc2ncc(F)c(CCN3CCC([C@@H](O)[C@H](O)c4ccc5c(c4)OCCO5)CC3)c2n1` [16b] as the compound, how does the MIC [1] read?
**A.** 0.5 µg/mL (≈ 1.03 µM)
